Several values for one entry are separate records, joined by “and”; a condition that tells them apart may be missing. Equal entries are not always repeated. Toxic doses and inconclusive results are not listed.
Test system: L1210 leukemia ip in BDF1 mice, survival T/C
Experiment: NCI In Vivo Anticancer Drug Screen. Data for tumor model L1210 Leukemia (intraperitoneal) in B6D2F1 (BDF1) mice
Conditions: endpoint: mean survival time, higher = longer survival
In short: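 Antitumor effect is assessed in tumor-bearing animals. Survival in the compound arm is compared with a vehicle-dosed control arm and expressed as their quotient.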

[1] = dose: 100.0 mg/kg/injection, schedule: Q04DX003 (ip), vehicle: saline
[2] = dose: 100.0 mg/kg/injection, schedule: Q01DX001 (ip), vehicle: carboxymethylcellulose (CMC)
[3] = dose: 200.0 mg/kg/injection, schedule: Q01DX001 (ip), vehicle: carboxymethylcellulose (CMC)
[4] = dose: 400.0 mg/kg/injection, schedule: Q01DX001 (ip), vehicle: carboxymethylcellulose (CMC)
[5] = dose: 100.0 mg/kg/injection, schedule: Q04DX003 (ip), vehicle: Klucel (hydroxypropylcellulose) (HPC)
[6] = dose: 200.0 mg/kg/injection, schedule: Q04DX003 (ip), vehicle: Klucel (hydroxypropylcellulose) (HPC)
[7] = dose: 400.0 mg/kg/injection, schedule: Q04DX003 (ip), vehicle: Klucel (hydroxypropylcellulose) (HPC)
[8] = dose: 100.0 mg/kg/injection, schedule: Q01DX001 (ip), vehicle: saline with Tween-80
[9] = dose: 200.0 mg/kg/injection, schedule: Q04DX003 (ip), vehicle: saline
[10] = dose: 400.0 mg/kg/injection, schedule: Q04DX003 (ip), vehicle: saline
[11] = dose: 100.0 mg/kg/injection, schedule: Q01DX009 (ip), vehicle: Klucel (hydroxypropylcellulose) (HPC)
[12] = dose: 200.0 mg/kg/injection, schedule: Q01DX009 (ip), vehicle: Klucel (hydroxypropylcellulose) (HPC)
[13] = dose: 200.0 mg/kg/injection, schedule: Q01DX001 (ip), vehicle: saline with Tween-80
[14] = dose: 400.0 mg/kg/injection, schedule: Q01DX001 (ip), vehicle: saline with Tween-80
[15] = dose: 100.0 mg/kg/injection, schedule: Q01DX001 (ip), vehicle: saline
[16] = dose: 200.0 mg/kg/injection, schedule: Q01DX001 (ip), vehicle: saline
[17] = dose: 400.0 mg/kg/injection, schedule: Q01DX001 (ip), vehicle: saline

CN(C)/C=N\c1ncnc2c1ccn2C1OC(CO)C(O)C1O (centres undefined)
T/C (dose: 1.56 mg/kg/injection, schedule: Q01DX005 (ip), vehicle: saline): 104 % of control | T/C (dose: 1.56 mg/kg/injection, schedule: Q01DX009 (ip), vehicle: saline): 109 % of control | T/C (dose: 3.12 mg/kg/injection, schedule: Q01DX005 (ip), vehicle: saline): 116 % of control | T/C (dose: 3.12 mg/kg/injection, schedule: Q01DX009 (ip), vehicle: saline): 114 % of control | T/C (dose: 6.25 mg/kg/injection, schedule: Q01DX005 (ip), vehicle: saline): 93 % of control | T/C (dose: 6.25 mg/kg/injection, schedule: Q01DX009 (ip), vehicle: saline): 88 % of control

CC[C@H](/C=C/[C@@H](C)[C@H]1CC[C@H]2[C@@H]3CC=C4C[C@@H](OC(=O)/C=C\C(=O)O)CC[C@]4(C)[C@H]3CC[C@]12C)C(C)C
T/C (dose: 12.5 mg/kg/injection, schedule: Q01DX009 (ip), vehicle: water): 96 % of control | T/C (dose: 25.0 mg/kg/injection, schedule: Q01DX009 (ip), vehicle: water): 86 % of control | T/C (dose: 25.0 mg/kg/injection, schedule: Q04DX003 (ip), vehicle: other): 105 % of control | T/C (dose: 50.0 mg/kg/injection, schedule: Q04DX003 (ip), vehicle: other): 92 % of control

CCCC[N+](CC)(CC)CCOC(=O)C1C2CC3OC(=O)C1C3C2 (centres undefined)
T/C [1]: 101 % of control

O=C1NC(=O)C(c2ccsc2)(c2cccs2)N1 (centres undefined)
T/C [2]: 97 % of control | T/C [3]: 89 % of control | T/C [4]: 100 % of control

Cc1ccc2c(ccc3ccccc32)n1
T/C [5]: 97 % of control | T/C [6]: 90 % of control | T/C [7]: 90 % of control

CCOC(=O)C(N)Cc1ccc(N(CCCl)CCCl)cc1 (centres undefined)
T/C (dose: 0.06 mg/kg/injection, schedule: Q01DX Z (ip), vehicle: saline): 99 % of control | T/C (dose: 0.13 mg/kg/injection, schedule: Q01DX Z (ip), vehicle: saline): 124 % of control | T/C (dose: 0.5 mg/kg/injection, schedule: Q01DX Z (oral), vehicle: saline): 120 % of control | T/C (dose: 2.0 mg/kg/injection, schedule: Q01DX Z (ip), vehicle: saline): 122 % of control | T/C (dose: 4.0 mg/kg/injection, schedule: Q01DX Z (ip), vehicle: saline): 161 % of control and 190 % of control | T/C (dose: 4.0 mg/kg/injection, schedule: Q01DX Z (oral), vehicle: saline): 162 % of control and 168 % of control | T/C (dose: 6.0 mg/kg/injection, schedule: Q01DX Z (ip), vehicle: saline): 160 % of control and 164 % of control and 202 % of control | T/C (dose: 9.0 mg/kg/injection, schedule: Q01DX Z (ip), vehicle: saline): 162 % of control and 164 % of control and 172 % of control | T/C (dose: 13.5 mg/kg/injection, schedule: Q01DX Z (ip), vehicle: saline): 165 % of control | T/C (dose: 16.0 mg/kg/injection, schedule: Q01DX Z (oral), vehicle: saline): 87 % of control and 88 % of control | T/C (dose: 20.0 mg/kg/injection, schedule: Q01DX Z (ip), vehicle: saline): 97 % of control

N=c1sc2ccccc2n1CC(=O)O
T/C (dose: 25.0 mg/kg/injection, schedule: Q01DX001 (ip), vehicle: saline with Tween-80): 92 % of control | T/C (dose: 50.0 mg/kg/injection, schedule: Q01DX001 (ip), vehicle: saline with Tween-80): 96 % of control | T/C [8]: 94 % of control

O=C(NCOC(c1ccccc1)c1ccccc1)c1cccnc1
T/C [1]: 89 % of control | T/C [9]: 86 % of control | T/C [10]: 92 % of control

CSc1ccc([PH+](c2ccc(SC)cc2)c2ccc(SC)cc2)cc1.CSc1ccc([PH+](c2ccc(SC)cc2)c2ccc(SC)cc2)cc1.[Cl][Hg][Cl]
T/C (dose: 50.0 mg/kg/injection, schedule: Q01DX009 (ip), vehicle: Klucel (hydroxypropylcellulose) (HPC)): 89 % of control | T/C [11]: 92 % of control and 98 % of control | T/C [12]: 94 % of control and 103 % of control

CC(=O)NCCO
T/C [8]: 100 % of control | T/C [13]: 105 % of control | T/C [14]: 100 % of control

[Cl][Pt+2][Cl].[NH-]C1CCCC1.[NH-]C1CCCC1
T/C (dose: 10.0 mg/kg/injection, schedule: Q01DX009 (ip), vehicle: Klucel (hydroxypropylcellulose) (HPC)): 102 % of control | T/C (dose: 20.0 mg/kg/injection, schedule: Q01DX009 (ip), vehicle: Klucel (hydroxypropylcellulose) (HPC)): 116 % of control | T/C (dose: 20.0 mg/kg/injection, schedule: Q04DX003 (ip), vehicle: Klucel (hydroxypropylcellulose) (HPC)): 121 % of control | T/C (dose: 40.0 mg/kg/injection, schedule: Q01DX005 (ip), vehicle: olive oil, sesame oil, peanut oil): 109 % of control | T/C (dose: 40.0 mg/kg/injection, schedule: Q01DX009 (ip), vehicle: Klucel (hydroxypropylcellulose) (HPC)): 107 % of control | T/C (dose: 40.0 mg/kg/injection, schedule: Q04DX003 (ip), vehicle: Klucel (hydroxypropylcellulose) (HPC)): 111 % of control and 123 % of control | T/C (dose: 66.0 mg/kg/injection, schedule: Q01DX005 (ip), vehicle: olive oil, sesame oil, peanut oil): 112 % of control | T/C (dose: 80.0 mg/kg/injection, schedule: Q01DX009 (ip), vehicle: Klucel (hydroxypropylcellulose) (HPC)): 121 % of control | T/C (dose: 80.0 mg/kg/injection, schedule: Q04DX003 (ip), vehicle: Klucel (hydroxypropylcellulose) (HPC)): 117 % of control | T/C (dose: 100.0 mg/kg/injection, schedule: Q01DX005 (ip), vehicle: olive oil, sesame oil, peanut oil): 120 % of control | T/C (dose: 150.0 mg/kg/injection, schedule: Q01DX005 (ip), vehicle: olive oil, sesame oil, peanut oil): 115 % of control | T/C (dose: 160.0 mg/kg/injection, schedule: Q01DX009 (ip), vehicle: Klucel (hydroxypropylcellulose) (HPC)): 124 % of control | T/C (dose: 160.0 mg/kg/injection, schedule: Q04DX003 (ip), vehicle: Klucel (hydroxypropylcellulose) (HPC)): 108 % of control and 112 % of control | T/C (dose: 320.0 mg/kg/injection, schedule: Q01DX009 (ip), vehicle: Klucel (hydroxypropylcellulose) (HPC)): 96 % of control | T/C (dose: 320.0 mg/kg/injection, schedule: Q04DX003 (ip), vehicle: Klucel (hydroxypropylcellulose) (HPC)): 118 % of control

CC(=O)Nc1ccc2c(c1)Cc1cc(Cl)ccc1-2
T/C (dose: 50.0 mg/kg/injection, schedule: Q01DX001 (ip), vehicle: saline): 105 % of control | T/C [15]: 100 % of control | T/C [16]: 103 % of control | T/C [17]: 105 % of control

C(Cc1ccccc1)=Nc1ccc(N=CCc2ccccc2)cc1
T/C [15]: 103 % of control | T/C [16]: 112 % of control | T/C [17]: 110 % of control

O=S(=O)(F)c1cc(Cl)c(S)c(Cl)c1
T/C [11]: 100 % of control

COc1ccc(Oc2cc(OC)ccc2Oc2ccccc2)cc1
T/C [2]: 97 % of control | T/C [3]: 105 % of control | T/C [4]: 110 % of control

O=C(Nc1ccc(S(=O)(=O)F)cc1)/C(=C/c1ccc([N+](=O)[O-])cc1)c1ccccc1
T/C (dose: 12.5 mg/kg/injection, schedule: Q01DX009 (ip), vehicle: saline with Tween-80): 102 % of control | T/C (dose: 25.0 mg/kg/injection, schedule: Q01DX009 (ip), vehicle: saline with Tween-80): 109 % of control | T/C (dose: 50.0 mg/kg/injection, schedule: Q01DX009 (ip), vehicle: saline with Tween-80): 98 % of control

CCCCC[CH2][Sn](=[O])[CH2]CCCCC
T/C [8]: 105 % of control | T/C [13]: 100 % of control | T/C [14]: 103 % of control

CC1C2CCC(C2)C1CO (centres undefined)
T/C [1]: 97 % of control | T/C [9]: 101 % of control | T/C [10]: 101 % of control

Cc1nc2c(-c3ccccc3)nc(C)n2nc1C
T/C (dose: 100.0 mg/kg/injection, schedule: Q04DX002 (ip), vehicle: saline with Tween-80): 111 % of control | T/C (dose: 200.0 mg/kg/injection, schedule: Q04DX002 (ip), vehicle: saline with Tween-80): 108 % of control | T/C (dose: 400.0 mg/kg/injection, schedule: Q04DX002 (ip), vehicle: saline with Tween-80): 92 % of control

CCC1(c2ccccc2)NC(=O)N(C)C1=O (centres undefined)
T/C [11]: 97 % of control | T/C [5]: 100 % of control | T/C [12]: 110 % of control | T/C [6]: 95 % of control | T/C [7]: 90 % of control

Cc1cccc(C)c1N=C/C=C/c1ccccc1
T/C [11]: 100 % of control | T/C [12]: 88 % of control | T/C (dose: 400.0 mg/kg/injection, schedule: Q01DX009 (ip), vehicle: Klucel (hydroxypropylcellulose) (HPC)): 102 % of control

CCOC(=O)c1cc(C)[nH]c1C
T/C (dose: 100.0 mg/kg/injection, schedule: Q01DX009 (ip), vehicle: gum acacia): 100 % of control | T/C (dose: 200.0 mg/kg/injection, schedule: Q01DX009 (ip), vehicle: gum acacia): 95 % of control | T/C (dose: 400.0 mg/kg/injection, schedule: Q01DX009 (ip), vehicle: gum acacia): 105 % of control
